Data: patent US20230391817A1, “5ALPHA-HYDROXY-6BETA-[2-(1-H-IMIDAZOL-4-YL)-ETHYLAMINO]-CHOLESTAN-3BETA-OL ANALOGUES AND PHARMACEUTICAL COMPOSITIONS COMPRISING SAME FOR USE IN THE TREATMENT OF CANCER” (priority 2020, published 2023)

Legend:
Type in all cases: cell-based
[1] = test system: MCF-7 breast tumor cells; assay: Microscope observation of treated MCF-7 cells
Procedure: A cell viability test was performed on MCF-7 (Michigan Cancer Foundation-7) breast tumor cells […] (ER(+) cells).
The MCF-7 cells are in a cell culture medium identical to that of Example 5 and are seeded in 12-well plates at 50 000 cells per well. 24 hours after seeding, the cells are treated with vehicle solvate comprising water and ethanol with a 1% o ratio of ethanol, 3β-fluoro-5α-hydroxy-6β-[2-(1H-imidazol-4-yl)ethylamino]cholestane, and 5α-hydroxy-6β-[2-(1H-imidazol-4-yl)ethylamino]cholestan-3β-ol at 1, 2.5 or 5 μM. The cells are observed under an inverted microscope and photographed via the microscope camera at 24 h and 48 h. The morphological changes in the cells at 1 μM are very small. […] The effects are more marked at 2.5 μM and 5 μM with an increase in the number of dead cells. […] After 24 h of treatment with 3β-fluoro-5α-hydroxy-6β-[2-(1H-imidazol-4-yl)ethylamino]-cholestane at 5 μM, 99% of the observed cells are supernatant, reflecting cell death, and 1% of the cells are adherent and show white vesicles. […] The cytostatic effect is illustrated by an inhibition of cell proliferation.

[2] = test system: BT-474 human mammary tumor cells; assay: Cell viability of BT-474 cells, MTT; settings: for Mean LogIC50 (±SEM) / IC50: BT-474, MTT, 48 h; for Mean LogIC50 (±SEM): log of IC50 in μM; for IC50: Homo sapiens
Procedure: The cell viability is measured by three different methods. For the first method, MTT labeling is performed at 48 hours. This test is based on the use of the tetrazolium salt MTT (3-(4,5-dimethylthiazol-2-yl)-2,5-diphenyltetrazolium bromide). Tetrazolium is reduced by mitochondrial succinate dehydrogenase in active live cells to formazan, a purple colored precipitate. The amount of precipitate formed is proportional to the amount of live cells but also to the metabolic activity of each cell. Thus, a simple determination of the optical density at 550 nm by spectroscopy makes it possible to determine the relative amount of live and metabolically active cells. After 48 hours, the medium is aspirated, and the cells are incubated with MTT (0.5 mg/ml in culture medium) for about 3 hours. The MTT solution is aspirated and the purple crystals are dissolved in dimethyl sulfoxide (DMSO). The OD (optical density) is measured at 550 nm. The percentage of viability is then determined in each well against the CTL and the IC50 (concentration at which 50% of cells remain alive) is determined for each molecule with the Prism software using a nonlinear regression curve (log(inhibitor) vs. Response).
Cell viability tests were also performed on BT-474 human mammary tumor cells (characterized as triple positive HER2+, ER+, PR+). The BT-474 cells were in a cell culture medium identical to the previous example and seeded in 24-well plates at 70 000 cells per well for cell viability determination using trypan blue, or in 96-well plates at 13 000 cells per well for cell viability determination using the MTT or LDH assay. After 96 hours (h) of culture under normal conditions, i.e. in an incubator at 37° C. with […], BT-474 cells were treated for 48 h with DX101, DX103, DX105, DX111, DX123 and DX127 at 100 nM, 1 μM, 2.5 μM and 10 μM. A control is also performed using the protocol described previously without treatment with DX101, DX103, DX105, DX111, DX123 and DX127.
After a 10-minute trypsin digestion at 37° C., the cell survival was also quantified by means of a trypan blue test with automatic counting using the Biorad TC20 machine (TC20™ Automated Cell Counter). The trypan blue test is based on the integrity of cell membranes, which is disrupted in the dead cells. Trypan blue stains dead cells blue. The Biorad TC20 cell counter counts the proportion of blue and non-blue cells, and reports the percentage of cells. The percentage of viability is then determined in each well relative to the untreated cells and the IC50 is determined as explained in the preceding example. Also, the percentage viability of the BT-474 cells was determined using the MTT and LDH assay, performed as described in the preceding example.

[3] = test system: Neuro2a (murine neuroblastoma) cells; assay: Cytotoxicity on Neuro2a cells, trypan blue test; settings: 48 h
Procedure: For this experiment, a cell culture medium was prepared. The culture medium consisted of Dulbecco's Modified Eagle Medium (DMEM, sold by Westburg under the reference LO BE12-604F), comprising 4.5 g/L glucose with L-glutamine, to which 10% fetal calf serum (FCS) is added. Neuro2a (murine neuroblastoma) cells are introduced into this culture medium.
24-well dishes were seeded with 10 000 Neuro2a cells per well. After 72 hours (h) of culture under normal conditions, i.e., in an incubator at 37° C. with 5% CO2, the Neuro2a cells were treated for 48 h with 3β-fluoro-5α-hydroxy-6β-[2-(1H-imidazol-4-yl)ethylamino]-cholestane and 5α-hydroxy-6β-[2-(1H-imidazol-4-yl)ethylamino]cholestan-3β-ol at 100 nM, 1 μM and 10 μM. A control (CTL) is also performed using the previously described protocol without treatment with […]-5α-hydroxy-6β-[2-(1H-imidazol-4-yl)ethylamino]-cholestane and 5α-hydroxy-6β-[2-(1H-imidazol-4-yl)ethylamino]cholestan-3β-ol. The cell survival was quantified by means of a trypan blue test with automatic counting using the Biorad TC20 machine (TC20™ Automated Cell Counter). The trypan blue test is based on the integrity of cell membranes, which is disrupted in the dead cells. Trypan blue stains dead cells blue. The Biorad TC20 cell counter counts the proportion of blue and non-blue cells, and reports the percentage of cells. The results are represented in FIG. 1.

SMILES	morphological changes in the cells ([1]; 1 μM, 24 h)	Mean LogIC50 (±SEM) [2]	IC50 [2]	percentage of cell survival relative to the control group ([3]; 100 nM)	percentage of cell survival relative to the control group ([3]; 1 μM)	percentage of cell survival relative to the control group ([3]; 10 μM)	morphological changes in the cells ([1]; 2.5 μM, 24 h)	cytostatic effect compared with 24 h ([1]; 2.5 μM, 48 h)	cells that are adherent and show white vesicles ([1]; 5 μM, 24 h)	observed cells that are supernatant (cell death) ([1]; 5 μM, 24 h)	morphological changes in the cells ([1]; 5 μM, 48 h)	effect compared with 5α-hydroxy-6β-[2-(1H-imidazol-4-yl)ethylamino]cholestan-3β-ol ([1]; 24 h of observation)	effect compared with 5α-hydroxy-6β-[2-(1H-imidazol-4-yl)ethylamino]cholestan-3β-ol ([1]; 48 h of observation)	activity compared with DX101 ([2]; BT-474, Tables 2a, 2b and 2c (MTT, LDH, Trypan Blue))
CC(C)CCC[C@@H](C)[C@H]1CC[C@H]2[C@@H]3C[C@@H](NCCc4c[nH]cn4)[C@@]4(O)C[C@@H](O)CC[C@]4(C)[C@H]3CC[C@]12C [DX101, 5α-hydroxy-6β-[2-(1H-imidazol-4-yl)ethylamino]cholestan-3β-ol, reference compound]	Only a few white vesicles	0.88 ± 0.03	7.53 µM											
CC(C)CCC[C@@H](C)[C@H]1CC[C@H]2[C@@H]3C[C@@H](NCCc4c[nH]cn4)[C@@]4(O)C[C@@H](F)CC[C@]4(C)[C@H]3CC[C@]12C [DX111, 3β-fluoro-5α-hydroxy-6β-[2-(1H-imidazol-4-yl)ethylamino]cholestane]	Only a few white vesicles	0.95 ± 0.10	8.94 µM	unchanged	75%	30%	numerous white vesicles and detached cells	stronger cytostatic effect	1%	99%	all the cells are supernatant	greater or equal effect	similar	similar
